Measured values taken from patent US10633407B2, “14-membered ketolides and methods of their preparation and use” (President and Fellows of Harvard College, priority 2014, dated 2020).
In brackets after ≈: the same amount, converted by molar mass. Read-outs that look alike come from different tables or passages of the source.

Columns and labels:
Assay in all cases: CLSI broth dilution MIC determination
Type in all cases: cell-based
E. coli ATCC 25922 = system: E. coli ATCC 25922
Description: (§1) MIC data was collected for the novel macrolides that this platform has produced against over 21 unique strains of B. subtilis, E. coli, S. aureus, S. pneumoniae, and H. influenzae, including several multidrug-resistant strains, with a special focus on macrolide resistant mechanisms (vide supra). Azithromycin (Azithro) and Solithromycin (Solithro) were included as a control macrolides in many cases. CLSI standard procedures for broth dilution MIC determination were used. […] These genotypes can be constitutive or inducible.

[1] = system: E. coli MP-532 clinical-cErmB
Description: as §1

E. coli MP-541 clinical = system: E. coli MP-541 clinical
Description: as §1

[2] = system: E. coli MP-9 ATCC25922:tolC
Description: as §1

[3] = system: S. aureus (MRSA) MP-513 ST-228 cErm (Clinical-cErm)
Description: as §1

S. aureus ATCC 29213 = S. aureus ATCC 29213 (MP-12)
Description: as §1

[4] = system: S. aureus MP-17 ATCCBAA-977 (BAA 977 iErm); settings: S. aureus MP-17, ATCCBAA-977, iErm
Description: as §1

S. aureus MRSA: USA300 = S. aureus MRSA: USA300 (MP-549, msr(a))
Description: as §1

A. baumannii ATCC 19606 = A. baumannii ATCC 19606 (MP-15)
K. pneumoniae ATCC 10031 = system: K. pneumoniae ATCC 10031
P. aeruginosa ATCC 27853 = P. aeruginosa ATCC 27853 (MP-3)
P. aeruginosa MP-7 PAO1 = system: P. aeruginosa MP-7 PAO1
[5] = system: P. aeruginosa MP-8 PAO1:mex (mex-oprM-deletion)
[6] = system: K. pneumoniae MP-548 clinical
[7] = system: K. pneumoniae MP-546 Clinical-MDR
[8] = system: A. baumannii MP-577 Clinical-AZT low
[9] = system: A. baumannii MP-576 Clinical-MDR
[10] = Escherichia coli, ATCC25922, E. coli ATCC 25922 (MP-4), read-out: MIC
[11] = Escherichia coli, MP541CLINICAL, read-out: MIC
[12] = Staphylococcus aureus, read-out: MIC
[13] = Staphylococcus aureus, ATCC29213, read-out: MIC
[14] = Acinetobacter baumannii, ATCC19606, read-out: MIC
[15] = Klebsiella pneumoniae, ATCC10031, K. pneumoniae ATCC 10031 (MP-14), read-out: MIC
[16] = Pseudomonas aeruginosa, ATCC27853, read-out: MIC
[17] = Pseudomonas aeruginosa, read-out: MIC
[18] = Klebsiella pneumoniae, MP548CLINICAL, read-out: MIC
[19] = Klebsiella pneumoniae, read-out: MIC
[20] = Acinetobacter baumannii, read-out: MIC

Compound | MIC (E. coli ATCC 25922; [10]) [µg/mL] | MIC ([1]; Escherichia coli) [µg/mL] | MIC (E. coli MP-541 clinical; [11]) [µg/mL] | MIC ([2]; Escherichia coli, ATCC25922) [µg/mL] | MIC [3, 12] [µg/mL] | MIC (S. aureus ATCC 29213; [13]) [µg/mL] | MIC [4, 12] [µg/mL] | MIC (S. aureus MRSA: USA300; [12]) [µg/mL] | MIC (A. baumannii ATCC 19606; [14]) [µg/mL] | MIC (K. pneumoniae ATCC 10031; [15]) [µg/mL] | MIC (P. aeruginosa ATCC 27853; [16]) [µg/mL] | MIC (P. aeruginosa MP-7 PAO1; [17]) [µg/mL] | MIC ([5]; Pseudomonas aeruginosa, PAO1) [µg/mL] | MIC [6, 18] [µg/mL] | MIC [7, 19] [µg/mL] | MIC [8, 20] [µg/mL] | MIC [9, 20] [µg/mL] | further results
CC[C@H]1OC(=O)[C@H](C)C(=O)[C@H](C)[C@@H](O[C@@H]2OC(C)CC(N(C)C)C2O)[C@](C)(OC)C[C@@H](C)C(=O)[C@H](C)[C@H]2N(NCCCn3nc4ccccc4n3)C(=O)O[C@]12C (stereo partly shown) [FSM-140132] | 16 (≈ 20.3 µM) | > 64 | 32 (≈ 40.7 µM) | 2 (≈ 2.54 µM) | > 64 | 0.25 (≈ 0.318 µM) | 0.25 (≈ 0.318 µM) | 0.5 (≈ 0.635 µM) | 32 (≈ 40.7 µM) | 4 (≈ 5.08 µM) | > 64 | > 64 | 8 (≈ 10.2 µM) | 64 (≈ 81.3 µM) | > 64 | 32 (≈ 40.7 µM) | > 64 | –
CC[C@H]1OC(=O)[C@@](C)(F)C(=O)[C@H](C)[C@@H](O[C@@H]2OC(C)CC(N(C)C)C2O)[C@](C)(OC)C[C@@H](C)C(=O)[C@H](C)[C@H]2N(CC#CCn3cc(-c4cc(N)ncn4)nn3)C(=O)O[C@]12C (stereo partly shown) [FSM-22745] | 32 (≈ 38 µM) | > 64 | 32 (≈ 38 µM) | 4 (≈ 4.75 µM) | > 64 | 0.5 (≈ 0.593 µM) | 1 (≈ 1.19 µM) | 1 (≈ 1.19 µM) | 32 (≈ 38 µM) | 8 (≈ 9.49 µM) | > 64 | > 64 | 16 (≈ 19 µM) | > 64 | > 64 | 64 (≈ 75.9 µM) | > 64 | –
CC[C@H]1OC(=O)[C@@](C)(F)C(=O)[C@H](C)[C@@H](O[C@@H]2OC(C)CC(N(C)C)C2O)[C@](C)(OC)C[C@@H](C)C(=O)[C@H](C)[C@H]2N(CC#CCn3cc(-c4cncc(N)n4)nn3)C(=O)O[C@]12C (stereo partly shown) [FSM-22747] | 32 (≈ 38 µM) | > 64 | 32 (≈ 38 µM) | 4 (≈ 4.75 µM) | > 64 | 0.25 (≈ 0.297 µM) | 0.25 (≈ 0.297 µM) | 0.5 (≈ 0.593 µM) | 16 (≈ 19 µM) | 8 (≈ 9.49 µM) | > 64 | > 64 | 16 (≈ 19 µM) | > 64 | > 64 | 32 (≈ 38 µM) | > 64 | –
CC[C@H]1OC(=O)[C@@](C)(F)C(=O)[C@H](C)[C@@H](O[C@@H]2OC(C)CC(N(C)C)C2O)[C@](C)(OC)C[C@@H](C)C(=O)[C@H](C)[C@H]2N(CC#CCn3cc(-c4cc(=O)cc[nH]4)nn3)C(=O)O[C@]12C (stereo partly shown) [FSM-100597] | 64 (≈ 75.9 µM) | > 64 | 32 (≈ 38 µM) | 4 (≈ 4.75 µM) | > 64 | 1 (≈ 1.19 µM) | 1 (≈ 1.19 µM) | 2 (≈ 2.37 µM) | 64 (≈ 75.9 µM) | 8 (≈ 9.49 µM) | > 64 | > 64 | 16 (≈ 19 µM) | > 64 | > 64 | > 64 | > 64 | –
CC[C@H]1OC(=O)[C@@](C)(F)C(=O)[C@H](C)[C@@H](O[C@@H]2OC(C)CC(N(C)C)C2O)[C@](C)(OC)C[C@@H](C)C(=O)[C@H](C)[C@H]2N(CC#CCn3cc(-c4ncccn4)nn3)C(=O)O[C@]12C (stereo partly shown) [FSM-22741] | 16 (≈ 19.3 µM) | > 64 | 32 (≈ 38.6 µM) | 4 (≈ 4.83 µM) | > 64 | 0.125 (≈ 0.151 µM) | 0.125 (≈ 0.151 µM) | 0.25 (≈ 0.302 µM) | 8 (≈ 9.66 µM) | 4 (≈ 4.83 µM) | > 64 | > 64 | 8 (≈ 9.66 µM) | 64 (≈ 77.3 µM) | > 64 | 32 (≈ 38.6 µM) | > 64 | –
CC[C@H]1OC(=O)[C@@](C)(F)C(=O)[C@H](C)[C@@H](O[C@@H]2OC(C)CC(N(C)C)C2O)[C@](C)(OC)C[C@@H](C)C(=O)[C@H](C)[C@H]2N(CC#CCn3cc(-c4cccnn4)nn3)C(=O)O[C@]12C (stereo partly shown) [FSM-130217] | 32 (≈ 38.6 µM) | > 64 | 32 (≈ 38.6 µM) | 4 (≈ 4.83 µM) | > 64 | 0.25 (≈ 0.302 µM) | 0.25 (≈ 0.302 µM) | 0.25 (≈ 0.302 µM) | 16 (≈ 19.3 µM) | 8 (≈ 9.66 µM) | > 64 | > 64 | 16 (≈ 19.3 µM) | > 64 | > 64 | 32 (≈ 38.6 µM) | > 64 | –
CC[C@H]1OC(=O)[C@@](C)(F)C(=O)[C@H](C)[C@@H](O[C@@H]2OC(C)CC(N(C)C)C2O)[C@](C)(OC)C[C@@H](C)C(=O)[C@H](C)[C@H]2N(CC#CCn3cc(-c4nccc(N)n4)nn3)C(=O)O[C@]12C (stereo partly shown) [FSM-22749] | 64 (≈ 75.9 µM) | > 64 | 64 (≈ 75.9 µM) | 8 (≈ 9.49 µM) | > 64 | 2 (≈ 2.37 µM) | 2 (≈ 2.37 µM) | 2 (≈ 2.37 µM) | 32 (≈ 38 µM) | 16 (≈ 19 µM) | > 64 | > 64 | 16 (≈ 19 µM) | > 64 | > 64 | > 64 | > 64 | –
CCC1OC(=O)C(C)(F)C(=O)C(C)C(OC2OC(C)CC(N(C)C)C2O)C(C)(OC)CC(C)C(=O)C(C)C2N(CC=C=Cn3cc(-c4ccnc(N)n4)nn3)C(=O)OC12C (stereo not shown) [FSM-22737] | – | – | – | – | – | – | – | – | – | – | – | – | – | – | – | – | – | MIC (E. coli ATCC 25922; E. coli ATCC 25922 (MP-4)): 16 µg/mL (≈ 19 µM); MIC ([1]; E. coli MP-532, clinical-cErmB): >64 µg/mL; MIC (E. coli MP-541 clinical): 16 µg/mL (≈ 19 µM); MIC ([2]; E. coli MP-9, ATCC25922:tolC): 2 µg/mL (≈ 2.37 µM); MIC [3]: >64 µg/mL; MIC (S. aureus ATCC 29213): 0.25 µg/mL (≈ 0.297 µM); MIC [4]: 0.25 µg/mL (≈ 0.297 µM); MIC (S. aureus MRSA: USA300): 0.25 µg/mL (≈ 0.297 µM); MIC (A. baumannii ATCC 19606): 16 µg/mL (≈ 19 µM); MIC (K. pneumoniae ATCC 10031; K. pneumoniae ATCC 10031 (MP-14)): 8 µg/mL (≈ 9.49 µM); MIC (P. aeruginosa ATCC 27853): >64 µg/mL; MIC (P. aeruginosa MP-7 PAO1): >64 µg/mL; MIC ([5]; P. aeruginosa MP-8, PAO1:mex, mex-oprM-deletion): 16 µg/mL (≈ 19 µM); MIC [6]: 64 µg/mL (≈ 75.9 µM); MIC [7]: >64 µg/mL; MIC [8]: 32 µg/mL (≈ 38 µM); MIC [9]: >64 µg/mL
CC[C@H]1OC(=O)[C@@](C)(F)C(=O)[C@H](C)[C@@H](O[C@@H]2OC(C)CC(N(C)C)C2O)[C@](C)(OC)C[C@@H](C)C(=O)[C@H](C)[C@H]2N(CC#CCn3cc(-c4cc(N)ccn4)nn3)C(=O)O[C@]12C (stereo partly shown) [FSM-100593] | 4 (≈ 4.75 µM) | > 64 | 8 (≈ 9.5 µM) | 0.5 (≈ 0.594 µM) | 64 (≈ 76 µM) | 0.125 (≈ 0.148 µM) | 0.125 (≈ 0.148 µM) | 0.25 (≈ 0.297 µM) | 8 (≈ 9.5 µM) | 1 (≈ 1.19 µM) | 32 (≈ 38 µM) | 32 (≈ 38 µM) | 2 (≈ 2.38 µM) | 16 (≈ 19 µM) | 32 (≈ 38 µM) | 8 (≈ 9.5 µM) | > 64 | –
CC[C@H]1OC(=O)[C@H](C)C(=O)[C@H](C)[C@@H](O[C@@H]2OC(C)CC(N(C)C)C2O)[C@](C)(OC)C[C@@H](C)C(=O)[C@H](C)[C@H]2N(NCCCn3nnc4ccccc43)C(=O)O[C@]12C (stereo partly shown) [FSM-140133] | 16 (≈ 20.3 µM) | > 64 | 16 (≈ 20.3 µM) | 4 (≈ 5.08 µM) | > 64 | 0.25 (≈ 0.318 µM) | 0.25 (≈ 0.318 µM) | 0.5 (≈ 0.635 µM) | 8 (≈ 10.2 µM) | 4 (≈ 5.08 µM) | 64 (≈ 81.3 µM) | 64 (≈ 81.3 µM) | 8 (≈ 10.2 µM) | 64 (≈ 81.3 µM) | > 64 | 64 (≈ 81.3 µM) | > 64 | –
CC[C@H]1OC(=O)[C@@](C)(F)C(=O)[C@H](C)[C@@H](O[C@@H]2OC(C)CC(N(C)C)C2O)[C@](C)(OC)C[C@@H](C)C(=O)[C@H](C)[C@H]2N(CC#CCn3cc(-c4cnc(N)s4)nn3)C(=O)O[C@]12C (stereo partly shown) [FSM-100633] | 8 (≈ 9.43 µM) | > 64 | 8 (≈ 9.43 µM) | 1 (≈ 1.18 µM) | 64 (≈ 75.5 µM) | 0.125 (≈ 0.147 µM) | 0.125 (≈ 0.147 µM) | 0.125 (≈ 0.147 µM) | 4 (≈ 4.72 µM) | 2 (≈ 2.36 µM) | 32 (≈ 37.7 µM) | 32 (≈ 37.7 µM) | 4 (≈ 4.72 µM) | 32 (≈ 37.7 µM) | 64 (≈ 75.5 µM) | 16 (≈ 18.9 µM) | > 64 | –
